What all share (type): functional, cell-based
Common to all, as to settings: Homo sapiens

One assay deals with HT-29. Nature of the assay: Antiproliferative activity against HT29 cell line by MTS assay. (Tetrazolium dyes change colour on reduction, which living cells bring about.)
Another assay deals with NCI-H460. Nature of the assay: Antiproliferative activity against NCI-H460 cell line by MTS assay.
The next assay deals with MDA-MB-231. Nature of the assay: Antiproliferative activity against MDA-MB-231 cell line by MTS assay.
The subject of the next assay is A549. Nature of the assay: Antiproliferative activity against A549 cell line by MTS assay.
In the next assay the test system is DLD-1. The experiment in a line: Antiproliferative activity against DLD1 cell line by MTS assay.

SMILES strings stand for the structures.

A word on the IC50: it is the concentration that inhibits the measured activity by half.

As for `COc1cc(-c2ccc[nH]2)[nH]c1/C=C1\C(C)=Nc2ccccc21`, the IC50 with HT-29 worked out at 36.2 µM; in the assay on NCI-H460 it was 21.6 µM; with MDA-MB-231, 47.4 µM; in the assay with A549, 54.6 µM; with DLD-1, 63.2 µM.

Regarding `COc1cc(-c2ccc[nH]2)[nH]c1/C=C1\C(C)=Nc2ccc(C)cc21`, the IC50 in the assay with HT-29 came to 12.3 µM; with NCI-H460, 10.8 µM; in the assay with MDA-MB-231 it was 23.2 µM; in the assay with A549, 14.3 µM; in the assay on DLD-1, 16.7 µM.

Regarding `COc1cc(-c2ccc[nH]2)[nH]c1/C=C1/C=C2CCCCC2=N1`, the half-maximal inhibitory concentration (IC50) in the assay on HT-29 came to 0.781 µM; in the assay with NCI-H460 it was 0.23 µM; in the assay on MDA-MB-231, 1.38 µM; with A549 it was 0.487 µM; with DLD-1 it was 0.446 µM.

Regarding `COC1=CC(c2ccc[nH]2)=N/C1=C\c1[nH]c(-c2ccc[nH]2)cc1OC`, the IC50 in the assay on HT-29 is 13.5 µM; with NCI-H460 it was 3.45 µM; in the assay on MDA-MB-231, 12.8 µM; in the assay on A549 it was 6.45 µM; in the assay with DLD-1 it was 7.74 µM.

Take `COc1cc(-c2ccc[nH]2)[nH]c1/C=C1\C=Nc2ccccc21`: the IC50 with HT-29 worked out at 4.68 µM; in the assay with NCI-H460, 4.06 µM; in the assay on MDA-MB-231, 9.35 µM; in the assay on A549 it was 6.61 µM; in the assay with DLD-1, 6.02 µM.

In the case of `CCC1CCCCCCCCC2=N/C(=C\c3[nH]c(-c4ccc[nH]4)cc3OC)C1=C2` (stereo not given) [METACYCLOPRODIGININE], the IC50 with HT-29 was 1.7 µM; in the assay with NCI-H460 it was 0.33 µM; with MDA-MB-231 it was 5.21 µM; in the assay with A549 it was 1.25 µM; with DLD-1, 1.78 µM.

With `CCCCCC1=C/C(=C/c2[nH]c(-c3ccc[nH]3)cc2OC)N=C1C` [PRODIGIOSIN], the IC50 with HT-29 was 0.173 µM; with NCI-H460 it was 0.032 µM; in the assay on MDA-MB-231, 0.213 µM; in the assay with A549, 0.077 µM; with DLD-1, 0.079 µM.

Values taken from ChEMBL document CHEMBL1138112, “Indoloprodigiosins from the C-10 bipyrrolic precursor: new antiproliferative prodigiosin analogs” (Bioorg Med Chem Lett, 2006).
